Here are results for 43 compounds from ChEMBL document CHEMBL4020822, “Identification of N-{cis-3-[Methyl(7H-pyrrolo[2,3-d]pyrimidin-4-yl)amino]cyclobutyl}propane-1-sulfonamide (PF-04965842): A Selective JAK1 Clinical Candidate for the Treatment of Autoimmune Diseases” (J Med Chem, 2018).

The nature of one data set: physchem. As to conditions: octanol/water phosphate buffer, pH 7.4.
Data set [1] can be described thus: Volume of distribution at steady state in rat at 1 mg/kg, iv or 3 mg/kg, po. Format: ADME, organism-based. As to conditions: in vivo, read-out: Vdss.
Data set [2] can be described thus: Oral bioavailability in rat at 3 mg/kg. It counts as ADME, organism-based. As to conditions: in vivo.
Data set [3] is described as follows: Aqueous solubility of the compound at pH 7.4. It counts as physicochemical.
Data set [4] in a line: Apparent permeability in RRCK cells from apical to basolateral side. Format: ADME, cell-based, Canis lupus familiaris, MDCKII-LE. As to conditions: dog, MDCK.
Data set [5] is described as follows: Tmax in freund's adjuvant-induced Lewis rat arthritis model blood at 15 mg/kg, po qd administered via oral gavage measured on day 7. Format: ADME, organism-based.

Converted amounts (≈) assume the structure as drawn.

The logD is lipophilicity at a set pH, counting ionised and neutral species. In “physchem”, `CN(c1ncnc2[nH]ccc12)[C@H]1C[C@@H](NS(=O)(=O)CC(F)(F)F)C1` had a logD of 1.9.
Regarding `CC(C)CS(=O)(=O)N[C@H]1C[C@@H](N(C)c2ncnc3[nH]ccc23)C1`, in the data set “physchem”, the log distribution coefficient (logD) worked out at 2.4.
As usually defined, the solubility is the concentration that dissolves in the medium under given conditions. Usually Papp A→B stands for the apparent permeability from the apical to the basolateral side of a cell layer. On to `CN(c1ncnc2[nH]ccc12)[C@H]1C[C@@H](NS(=O)(=O)CC2COC2)C1`, for which the Vd in data set [1] was 1.99 L/kg. For the same compound, the bioavailability in data set [2] came out at 48.3%. The solubility in data set [3] was found to be 437 µM (≈ 154 µg/mL). Further, the Papp A→B in data set [4] amounted to 3 ×10⁻⁶ cm/s. In “physchem”, this compound came in with a logD of 1.
The compound `CN(c1ncnc2[nH]ccc12)[C@H]1C[C@@H](NS(=O)(=O)CC2CC2)C1` displayed a logD in the data set “physchem” of 1.8.
For `CN(c1ncnc2[nH]ccc12)[C@H]1C[C@@H](NS(=O)(=O)NCC2CC2)C1`, in the data set “physchem”, the logD came to 2.1.
`CN(CCC#N)S(=O)(=O)N[C@H]1C[C@@H](N(C)c2ncnc3[nH]ccc23)C1`: the pH-dependent lipophilicity (logD) in the data set “physchem” is 1.3.
As to `CCCCS(=O)(=O)C[C@H]1C[C@@H](N(C)c2ncnc3[nH]ccc23)C1`, in data set [1], the Vd came to 0.74 L/kg. Also, the bioavailability in data set [2] came out at 119%. In data set [3], this compound returned a solubility of 213 µM (≈ 71.7 µg/mL). The Papp A→B in data set [4] is 23 ×10⁻⁶ cm/s. Also, in the data set “physchem”, the pH-dependent lipophilicity (logD) was determined as 2.2.
The compound `CN(c1ncnc2[nH]ccc12)[C@H]1C[C@@H](NS(=O)(=O)C2CC2)C1` yielded a logD in “physchem” of 1.6.
As for `CCCNS(=O)(=O)C[C@H]1C[C@@H](N(C)c2ncnc3[nH]ccc23)C1`, the logD in the data set “physchem” came to 2.1.
`CN(C1CC1)S(=O)(=O)N[C@H]1C[C@@H](N(C)c2ncnc3[nH]ccc23)C1`: the logD in the data set “physchem” worked out at 2.2. This logD and that of the compound before are within 0.2 log units of each other.
Consider `COCCS(=O)(=O)N[C@H]1C[C@@H](N(C)c2ncnc3[nH]ccc23)C1`, for which the logD in “physchem” worked out at 1.2.
`CCCCN(C)S(=O)(=O)C[C@H]1C[C@@H](N(C)c2ncnc3[nH]ccc23)C1` registered a logD in the data set “physchem” of 3.
In the case of `CN(c1ncnc2[nH]ccc12)[C@H]1C[C@@H](CS(=O)(=O)NCC2CC2)C1`, in “physchem”, the logD turned out to be 2.2.
`CN(c1ncnc2[nH]ccc12)[C@H]1C[C@@H](NS(=O)(=O)CC2CCC2)C1` showed a logD in “physchem” of 2.4.
Regarding `CCNS(=O)(=O)N[C@H]1C[C@@H](N(C)c2ncnc3[nH]ccc23)C1`, the logD in “physchem” was determined as 1.6.
Same read-out and setting: for `CN(c1ncnc2[nH]ccc12)[C@H]1C[C@@H](CS(=O)(=O)C2CC2)C1` the value was 1.6; for `CN(c1ncnc2[nH]ccc12)[C@H]1C[C@@H](NS(=O)(=O)N2CCCCC2)C1`, 2.7; for `CN(c1ncnc2[nH]ccc12)[C@H]1C[C@@H](NS(=O)(=O)NC2CC2)C1`, 1.6.
In “physchem”, `CN(c1ncnc2[nH]ccc12)[C@H]1C[C@@H](NS(=O)(=O)CCCC(F)(F)F)C1` showed a logD of 2.4.
Consider `CN(c1ncnc2[nH]ccc12)[C@H]1C[C@@H](NS(=O)(=O)NCCCC#N)C1`, for which the logD in “physchem” was determined as 1.2.
`CN(c1ncnc2[nH]ccc12)[C@H]1C[C@@H](NS(=O)(=O)Cc2ccccc2)C1` came in with a logD in “physchem” of 2.6.
The same measure, in the same setting: with `CCN(C)S(=O)(=O)N[C@H]1C[C@@H](N(C)c2ncnc3[nH]ccc23)C1` the figure was 2.1; with `COCCCS(=O)(=O)N[C@H]1C[C@@H](N(C)c2ncnc3[nH]ccc23)C1`, 1.5; with `CCCCS(=O)(=O)N[C@H]1C[C@@H](N(C)c2ncnc3[nH]ccc23)C1`, 2.4.
Same read-out and setting: with `CCNS(=O)(=O)C[C@H]1C[C@@H](N(C)c2ncnc3[nH]ccc23)C1` the figure was 1.5.
In the case of `CCCS(=O)(=O)C[C@H]1C[C@@H](N(C)c2ncnc3[nH]ccc23)C1`, the logD in the data set “physchem” worked out at 1.7.
As for `CCS(=O)(=O)N[C@H]1C[C@@H](N(C)c2ncnc3[nH]ccc23)C1`, the logD in the data set “physchem” was determined as 1.4.
In “physchem”, `CCCCNS(=O)(=O)C[C@H]1C[C@@H](N(C)c2ncnc3[nH]ccc23)C1` came in with a logD of 2.6.
Still for that read-out and setting: with `CN(CC1CC1)S(=O)(=O)C[C@H]1C[C@@H](N(C)c2ncnc3[nH]ccc23)C1` the figure was 2.7; with `CCCNS(=O)(=O)N[C@H]1C[C@@H](N(C)c2ncnc3[nH]ccc23)C1`, 2.
On to `CN(c1ncnc2[nH]ccc12)[C@H]1C[C@@H](NS(=O)(=O)CCCC#N)C1`, for which, in data set [1], the Vd was 1.42 L/kg. For the same compound, in data set [2], the bioavailability was determined as 61.1%. The compound further came in with a solubility in data set [3] of 259 µM (≈ 90.2 µg/mL). In addition, the Papp A→B in data set [4] was found to be 4 ×10⁻⁶ cm/s.
Turning to `CCS(=O)(=O)C[C@H]1C[C@@H](N(C)c2ncnc3[nH]ccc23)C1`, the logD in “physchem” worked out at 1.2.
Still for that read-out and setting: for `CN(c1ncnc2[nH]ccc12)[C@H]1C[C@@H](NS(C)(=O)=O)C1` the value was 1.2; for `CN(c1ncnc2[nH]ccc12)[C@H]1C[C@@H](NS(=O)(=O)c2ccccc2)C1`, 2.8.
For `CCCS(=O)(=O)N[C@H]1C[C@H](N(C)c2ncnc3[nH]ccc23)C1`, the logD in “physchem” was found to be 2.
With `CN(c1ncnc2[nH]ccc12)[C@H]1C[C@@H](NS(=O)(=O)CCC(F)(F)F)C1`, the logD in “physchem” is 2.4.
In the case of `CN(c1ncnc2[nH]ccc12)[C@H]1C[C@@H](CS(=O)(=O)c2ccccc2)C1`, the logD in the data set “physchem” came to 2.7.
On the same count and under the same terms, with `CN(c1ncnc2[nH]ccc12)[C@H]1C[C@@H](NS(=O)(=O)c2ccc(F)cc2)C1` the figure was 2.8.
In “physchem”, `CN(c1ncnc2[nH]ccc12)[C@H]1C[C@@H](CS(=O)(=O)N2CCCC2)C1` yielded a logD of 2.1.
Usually Tmax stands for the time from dosing to the highest level. For the compound `CCCS(=O)(=O)N[C@H]1C[C@@H](N(C)c2ncnc3[nH]ccc23)C1` [ABROCITINIB], the Vd in data set [1] is 1.04 L/kg. Moreover, the bioavailability in data set [2] worked out at 95.6%. The solubility in data set [3] was determined as 503 µM (≈ 163 µg/mL). For the same compound, the Papp A→B in data set [4] came out at 16 ×10⁻⁶ cm/s. Further, the Tmax in data set [5] came out at 15 min. In “physchem”, the logD was determined as 1.9.
In turn, `CCS(=O)(=O)N1CC(CC#N)(n2cc(-c3ncnc4[nH]ccc34)cn2)C1` [BARICITINIB] displayed a logD in “physchem” of 1.2.
Still for that read-out and setting: with `N#CC[C@H](C1CCCC1)n1cc(-c2ncnc3[nH]ccc23)cn1` [RUXOLITINIB] the figure was 2.7; with `C[C@@H]1CCN(C(=O)CC#N)C[C@@H]1N(C)c1ncnc2[nH]ccc12` [TOFACITINIB], 1.1.
